# According to patent US6355799B1, “Substituted benzene compounds, process for their preparation, and herbicidal and defoliant compositions containing them” (ISK Americas Incorporated, priority 1997, dated 2002):
# Experiments:
# Assay type in all cases: in vivo
# [1] = tested on: redroot pigweed (Amaranthus retroflexus, AMARE); assay: Pre-emerge test, greenhouse herbicide activity screening; details: pre-emerge, 14 days after application, scale 0-100
# How it was run: (§1)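 Compounds in acetone were track-sprayed at 187 l/ha, 15–1000 g ai/ha, onto sandy loam pots. Pre-emerge seeds were sown one day before spraying, with surface watering afterwards. Post-emerge plants were at the 2–3 leaf stage and sprayed with 0.25% v/v non-ionic surfactant. Injury was rated 0–100 at 14 days.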
# [2] = tested on: barnyardgrass (Echinochloa crus-galli, ECHCG); assay: as above; details: pre-emerge, 14 days after application, scale 0-100
# How it was run: (§2)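 Sandy loam pots; pre-emerge: sown 1 d pre-spray, surface-watered after, then bottom-watered. Post-emerge: sown 8–21 d before, 2–3 leaf stage, + 0.25% v/v NIS, bottom-watered. Acetone, 187 l/ha track spray, 15–1000 g ai/ha. 0–100 injury score, day 14.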
# [3] = tested on: green foxtail (Setaria viridis, SETVI); assay: as above; details: pre-emerge, 14 days after application, scale 0-100
# How it was run: as §2
# [4] = tested on: ivyleaf morningglory (Ipomoea hederacea, IPOHE); assay: as above; details: pre-emerge, 14 days after application, scale 0-100
# How it was run: as §2
# [5] = tested on: johnsongrass (Sorghum halepense, SORHA); assay: as above; details: pre-emerge, 14 days after application, scale 0-100
# How it was run: as §2
# [6] = tested on: lambsquarters (Chenopodium album, CHEAL); assay: as above; details: pre-emerge, 14 days after application, scale 0-100
# How it was run: as §2
# [7] = tested on: large crabgrass (Digitaria sanguinalis, DIGSA); assay: as above; details: pre-emerge, 14 days after application, scale 0-100
# How it was run: as §2
# [8] = tested on: sicklepod (Cassia obtusifolia, CASOB); assay: as above; details: pre-emerge, 14 days after application, scale 0-100
# How it was run: as §2
# [9] = tested on: velvetleaf (Abutilon theophrasti, ABUTH); assay: as above; details: pre-emerge, 14 days after application, scale 0-100
# How it was run: as §2
# [10] = tested on: field corn (Zea mays L., var. Dekalb 535, CORN); assay: Pre-emerge test, crop safety; details: pre-emerge, 14 days after application, scale 0-100
# How it was run: (§3)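 Rating: 0–100 visual injury, 14 DAA. Application: acetone, 187 l/ha, 15–1000 g ai/ha, flat-fan track sprayer with nozzle 40–45 cm above soil or canopy. Post-emerge runs used 0.25% v/v surfactant on 2–3 leaf plants.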
# [11] = tested on: upland rice (Oryza sp., var. Tebonnet, RICE); assay: Pre-emerge test, crop safety; details: pre-emerge, 14 days after application, scale 0-100
# How it was run: as §3
# [12] = tested on: barnyardgrass (Echinochloa crus-galli, ECHCG); assay: Post-emerge test, greenhouse herbicide activity screening; details: post-emerge, 14 days after application, rating scale 0-100
# How it was run: as §1
# [13] = tested on: green foxtail (Setaria viridis, SETVI); assay: as above; details: post-emerge, 14 days after application, rating scale 0-100
# How it was run: as §1
# [14] = tested on: ivyleaf morningglory (Ipomoea hederacea, IPOHE); assay: as above; details: post-emerge, 14 days after application, rating scale 0-100
# How it was run: as §1
# [15] = tested on: lambsquarters (Chenopodium album, CHEAL); assay: as above; details: post-emerge, 14 days after application, rating scale 0-100
# How it was run: as §1
# [16] = tested on: large crabgrass (Digitaria sanguinalis, DIGSA); assay: as above; details: post-emerge, 14 days after application, rating scale 0-100
# How it was run: as §1
# [17] = tested on: redroot pigweed (Amaranthus retroflexus, AMARE); assay: as above; details: post-emerge, 14 days after application, rating scale 0-100
# How it was run: as §1
# [18] = tested on: sicklepod (Cassia obtusifolia, CASOB); assay: as above; details: post-emerge, 14 days after application, rating scale 0-100
# How it was run: as §1
# [19] = tested on: velvetleaf (Abutilon theophrasti, ABUTH); assay: as above; details: post-emerge, 14 days after application, rating scale 0-100
# How it was run: as §1
# [20] = tested on: field corn (Zea mays L., var. Dekalb 535, CORN); assay: Post-emerge test, crop safety; details: post-emerge, 14 days after application, rating scale 0-100
# How it was run: as §2
# [21] = tested on: upland rice (Oryza sp., var. Tebonnet, RICE); assay: Post-emerge test, crop safety; details: post-emerge, 14 days after application, rating scale 0-100
# How it was run: as §2
structure (smiles),measurement,setting,value
COc1c(Cl)cc(F)c(-n2c(=O)cc(C(F)(F)F)n(C)c2=O)c1NC(=O)COc1ccc(Cl)cc1Cl [2-154],phytotoxicity rating AMARE,[1]; 63 g ai/ha,100
same,phytotoxicity rating AMARE,[1]; 250 g ai/ha,100
same,phytotoxicity rating ECHCG,[2]; 63 g ai/ha,50
same,phytotoxicity rating ECHCG,[2]; 250 g ai/ha,95
same,phytotoxicity rating SETVI,[3]; 63 g ai/ha,70
same,phytotoxicity rating SETVI,[3]; 250 g ai/ha,100
same,phytotoxicity rating IPOHE,[4]; 63 g ai/ha,80
same,phytotoxicity rating IPOHE,[4]; 250 g ai/ha,100
same,phytotoxicity rating SORHA,[5]; 63 g ai/ha,80
same,phytotoxicity rating SORHA,[5]; 250 g ai/ha,95
same,phytotoxicity rating CHEAL,[6]; 63 g ai/ha,100
same,phytotoxicity rating CHEAL,[6]; 250 g ai/ha,100
same,phytotoxicity rating DIGSA,[7]; 63 g ai/ha,85
same,phytotoxicity rating DIGSA,[7]; 250 g ai/ha,95
same,phytotoxicity rating CASOB,[8]; 63 g ai/ha,60
same,phytotoxicity rating CASOB,[8]; 250 g ai/ha,95
same,phytotoxicity rating ABUTH,[9]; 63 g ai/ha,100
same,phytotoxicity rating ABUTH,[9]; 250 g ai/ha,100
same,phytotoxicity rating CORN (crop damage),[10]; 63 g ai/ha,10
same,phytotoxicity rating CORN (crop damage),[10]; 250 g ai/ha,90
same,phytotoxicity rating RICE (crop damage),[11]; 63 g ai/ha,35
same,phytotoxicity rating RICE (crop damage),[11]; 250 g ai/ha,70
same,ECHCG phytotoxicity rating,[12]; 63 g ai/ha,80
same,ECHCG phytotoxicity rating,[12]; 250 g ai/ha,95
same,SETVI phytotoxicity rating,[13]; 63 g ai/ha,40
same,SETVI phytotoxicity rating,[13]; 250 g ai/ha,95
same,IPOHE phytotoxicity rating,[14]; 63 g ai/ha,100
same,IPOHE phytotoxicity rating,[14]; 250 g ai/ha,100
same,CHEAL phytotoxicity rating,[15]; 63 g ai/ha,100
same,CHEAL phytotoxicity rating,[15]; 250 g ai/ha,100
same,DIGSA phytotoxicity rating,[16]; 63 g ai/ha,10
same,DIGSA phytotoxicity rating,[16]; 250 g ai/ha,85
same,AMARE phytotoxicity rating,[17]; 63 g ai/ha,100
same,AMARE phytotoxicity rating,[17]; 250 g ai/ha,100
same,CASOB phytotoxicity rating,[18]; 63 g ai/ha,50
same,CASOB phytotoxicity rating,[18]; 250 g ai/ha,100
same,ABUTH phytotoxicity rating,[19]; 63 g ai/ha,100
same,ABUTH phytotoxicity rating,[19]; 250 g ai/ha,100
same,CORN phytotoxicity rating (crop damage),[20]; 63 g ai/ha,10
same,CORN phytotoxicity rating (crop damage),[20]; 250 g ai/ha,85
same,RICE phytotoxicity rating (crop damage),[21]; 63 g ai/ha,65
same,RICE phytotoxicity rating (crop damage),[21]; 250 g ai/ha,90
COc1c(Cl)cc(F)c(-n2c(=O)cc(C(F)(F)F)n(N)c2=O)c1NC(=O)C=Cc1ccccc1 [2-185],phytotoxicity rating AMARE,[1]; 63 g ai/ha,100
same,phytotoxicity rating AMARE,[1]; 250 g ai/ha,100
same,phytotoxicity rating ECHCG,[2]; 63 g ai/ha,10
same,phytotoxicity rating ECHCG,[2]; 250 g ai/ha,10
same,phytotoxicity rating SETVI,[3]; 63 g ai/ha,30
same,phytotoxicity rating SETVI,[3]; 250 g ai/ha,50
same,phytotoxicity rating IPOHE,[4]; 63 g ai/ha,60
same,phytotoxicity rating IPOHE,[4]; 250 g ai/ha,60
same,phytotoxicity rating SORHA,[5]; 63 g ai/ha,20
same,phytotoxicity rating SORHA,[5]; 250 g ai/ha,20
same,phytotoxicity rating CHEAL,[6]; 63 g ai/ha,100
same,phytotoxicity rating CHEAL,[6]; 250 g ai/ha,100
same,phytotoxicity rating DIGSA,[7]; 63 g ai/ha,20
same,phytotoxicity rating DIGSA,[7]; 250 g ai/ha,40
same,phytotoxicity rating CASOB,[8]; 63 g ai/ha,0
same,phytotoxicity rating CASOB,[8]; 250 g ai/ha,60
same,phytotoxicity rating ABUTH,[9]; 63 g ai/ha,90
same,phytotoxicity rating ABUTH,[9]; 250 g ai/ha,100
same,phytotoxicity rating CORN (crop damage),[10]; 63 g ai/ha,0
same,phytotoxicity rating CORN (crop damage),[10]; 250 g ai/ha,5
same,phytotoxicity rating RICE (crop damage),[11]; 63 g ai/ha,20
same,phytotoxicity rating RICE (crop damage),[11]; 250 g ai/ha,40
same,ECHCG phytotoxicity rating,[12]; 63 g ai/ha,0
same,ECHCG phytotoxicity rating,[12]; 250 g ai/ha,0
same,SETVI phytotoxicity rating,[13]; 63 g ai/ha,0
same,SETVI phytotoxicity rating,[13]; 250 g ai/ha,20
same,IPOHE phytotoxicity rating,[14]; 63 g ai/ha,60
same,IPOHE phytotoxicity rating,[14]; 250 g ai/ha,80
same,CHEAL phytotoxicity rating,[15]; 63 g ai/ha,70
same,CHEAL phytotoxicity rating,[15]; 250 g ai/ha,100
same,DIGSA phytotoxicity rating,[16]; 63 g ai/ha,0
same,DIGSA phytotoxicity rating,[16]; 250 g ai/ha,10
same,AMARE phytotoxicity rating,[17]; 63 g ai/ha,80
same,AMARE phytotoxicity rating,[17]; 250 g ai/ha,100
same,CASOB phytotoxicity rating,[18]; 63 g ai/ha,40
same,CASOB phytotoxicity rating,[18]; 250 g ai/ha,60
same,ABUTH phytotoxicity rating,[19]; 63 g ai/ha,100
same,ABUTH phytotoxicity rating,[19]; 250 g ai/ha,100
same,CORN phytotoxicity rating (crop damage),[20]; 63 g ai/ha,0
same,CORN phytotoxicity rating (crop damage),[20]; 250 g ai/ha,5
same,RICE phytotoxicity rating (crop damage),[21]; 63 g ai/ha,20
same,RICE phytotoxicity rating (crop damage),[21]; 250 g ai/ha,35
